Laboratory results taken from patent publication US8293729B2 (Boehringer Ingelheim International GmbH, priority 2009, dated 2012).
pEC50: −log10 of the molar value.

Target: T1, human GPR119 receptor (Homo sapiens, UniProt Q8TDV5, S329A/T327A)
T1 construct: N-terminal leader […]; expressed in transfected cells
T1 sequence (Q8TDV5 with tags, fused parts or gaps T327A/S329A): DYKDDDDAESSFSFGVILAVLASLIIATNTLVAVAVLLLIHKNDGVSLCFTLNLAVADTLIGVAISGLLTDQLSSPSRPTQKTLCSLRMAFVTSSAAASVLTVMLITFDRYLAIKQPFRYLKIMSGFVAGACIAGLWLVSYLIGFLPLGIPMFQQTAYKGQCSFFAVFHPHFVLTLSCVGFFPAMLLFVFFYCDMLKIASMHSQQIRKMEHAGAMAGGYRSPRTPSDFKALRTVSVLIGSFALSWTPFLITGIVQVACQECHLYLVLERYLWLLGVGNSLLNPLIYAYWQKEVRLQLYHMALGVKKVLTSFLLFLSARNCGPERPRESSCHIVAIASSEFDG
Assay: cAMP assay (LANCE cAMP-384) in HEK293 cells stably expressing mutant human GPR119 receptor
Format: cell-based
Conditions: HEK293, 20 min; at 10 μM; printed in EC50 column of the 36th table; read-out: stimulation in % at 10 μM
Summary of the method: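 HEK293 cells stably expressing human GPR119 (T327A/S329A, modified N-terminus), 1000 cells/well, exposed to compound for 20 min at 37° C. cAMP quantified by LANCE TR-FRET against a standard curve; EC50 from 12 points, 30 μM to 100 pM, or % stimulation at 10 μM.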

SMILES	activation at 10 µM [%]
CS(=O)(=O)c1ccc(N2CCC(=NOC3CCN(Cc4ccc5c(c4)OCO5)CC3)CC2)c(F)c1 [Example 66-37]	87

Same assay, conditions: cAMP accumulation, HEK293 cells stably expressing mutant human GPR119; read-out: EC50

SMILES	pEC50
CC(C)OC(=O)N1CCC(ON=C2CCN(c3cc(F)c(CS(=O)(=O)C4CC4)cc3F)CC2)CC1 [Example 14-3]	7.72
CC(C)OC(=O)N1CCC(ON=C2CCN(c3cc(F)c(CN4CCN(C(=O)OC(C)(C)C)CC4=O)cc3F)CC2)CC1 [Example 15-3]	6.39
CCOC(=O)CC(=O)c1cc(F)c(N2CCC(=NOC3CCN(C(=O)OC(C)C)CC3)CC2)nc1Cl [Example 2-48]	6.84
CCOC(=O)NCc1cc(F)c(N2CCC(=NOC3CCN(C(=O)OC(C)C)CC3)CC2)cc1F [Example 16-4]	7.15
CC(C)OC(=O)N1CCC(ON=C2CCN(c3nc(F)ccc3F)CC2)CC1 [Example 2-70]	5.49
CC(C)OC(=O)N1CCC(ON=C2CCN(c3cc(F)c(C(C)O)cc3F)CC2)CC1 (centres unmarked) [Example 50-1, 4-{1-[2,5-Difluoro-4-(1-hydroxy-ethyl)-phenyl]-piperidin-4-ylideneaminooxy}-piperidine-1-carboxylic acid isopropyl ester]	7.32
CCc1cnc(-c2cc(F)c(N3CCC(=NOC4CCN(C(=O)OC(C)C)CC4)CC3)cc2F)nc1 [Example 27-21]	6.29
CC(C)OC(=O)N1CCC(ON=C2CCN(c3cc(F)c(CN(C)C)cc3F)CC2)CC1 [Example 5-8]	< 5.00
CC(C)OC(=O)N1CCC(ON=C2CCN(c3nc(F)c(F)cc3F)CC2)CC1 [Example 2-75]	6.34
CC(C)OC(=O)N1CCC(ON=C2CCN(c3ccc(-c4cnco4)cc3F)CC2)CC1 [Example 20-2]	6.30
CC(C)OC(=O)N1CCC(ON=C2CCN(c3nccnc3Cl)CC2)CC1 [Example 2-10]	6.44
CC(C)OC(=O)N1CCC(ON=C2CCN(c3cc(F)c(S(=O)(=O)C4CC4)cc3F)CC2)CC1 [Example 47-1, 4-[1-(4-Cyclopropanesulfonyl-2,5-difluoro-phenyl)-piperidin-4-ylideneaminooxy]-piperidine-1-carboxylic acid isopropyl ester]	7.37
CC(C)OC(=O)N1CCC(ON=C2CCN(c3cc(F)c(-c4ncc[nH]4)cc3F)CC2)CC1 [Example 27-22]	7.27
CC(C)OC(=O)N1CCC(ON=C2CCN(c3cc(F)c(Cn4ccnc4)cc3F)CC2)CC1 [Example 14-4]	6.57
CSc1nc(N2CCC(=NOC3CCN(C(=O)OC(C)C)CC3)CC2)ncc1Br [Example 2-55]	< 5.00

Same assay, conditions: the 15th table; read-out: EC50

SMILES	pEC50
COCCCNC(=O)c1cc(F)c(N2CCC(=NOC3CCN(C(=O)OC(C)C)CC3)CC2)cc1F [Example 29-10]	7.55
CC(C)OC(=O)N1CCC(ON=C2CCN(c3cc(F)c(C(=O)N4CCNCC4)cc3F)CC2)CC1 [Example 29-3]	6.29

Same assay, conditions: the 19th table; unit inferred; read-out: EC 50

SMILES	pEC50
CCc1cnc(N2CCC(ON=C3CCN(c4cc(F)c(C(=O)NCC5CCCN5C)cc4F)CC3)CC2)nc1 (centres unmarked) [Example 29-138]	6.73
CCc1cnc(N2CCC(ON=C3CCN(c4cc(F)c(C(=O)N5CCCNCC5)cc4F)CC3)CC2)nc1 [Example 29-114]	6.41

Same assay, conditions: the 28th table; read-out: EC50

SMILES	pEC50
CC(C)OC(=O)N1CCC(ON=C2CCN(c3ncc(-n4cncn4)cc3F)CC2)CC1 [Example 51-1, 4-(3′-Fluoro-5′-[1,2,4]triazol-1-yl-2,3,5,6-tetrahydro-[1,2]bipyridinyl-4-ylideneaminooxy)-piperidine-1-carboxylic acid isopropyl ester]	6.49

Same assay, conditions: the 31st table; read-out: EC50

SMILES	pEC50
CC(C)OC(=O)N1CCC(ON=C2CCCN(c3ccc(S(C)(=O)=O)cc3F)C2)CC1 (mixture of isomers) [Example 61-1, 4-[1-(2-Fluoro-4-methanesulfonyl-phenyl)-piperidin-(3Z)-ylideneaminooxy]-piperidine-1-carboxylic acid isopropyl ester]	< 5.00

Same assay, conditions: the 32nd table; read-out: EC50

SMILES	pEC50
CS(=O)(=O)c1ccc(N2CCC(=NOC3CCN(c4ccc(C(F)(F)F)cn4)CC3)CC2)c(F)c1 [Example 63-14]	6.31
Cc1cccc(N2CCC(ON=C3CCN(c4ccc(S(C)(=O)=O)cc4F)CC3)CC2)n1 [Example 63-2]	5.90
COC(=O)c1cnc(N2CCC(ON=C3CCN(c4ccc(S(C)(=O)=O)cc4F)CC3)CC2)nc1 [Example 63-21]	6.59
CS(=O)(=O)c1ccc(N2CCC(=NOC3CCN(c4ccc(C#N)cn4)CC3)CC2)c(F)c1 [Example 63-23]	5.89

Same assay, conditions: the 33rd table; read-out: EC50

SMILES	pEC50
CC(C)CCOC(=O)N1CCC(ON=C2CCN(c3ccc(S(C)(=O)=O)cc3F)CC2)CC1 [Example 64-40]	7.05
CC(C)[C@@H](N)COC(=O)N1CCC(ON=C2CCN(c3ccc(S(C)(=O)=O)cc3F)CC2)CC1 [Example 64-44]	< 5.00
CS(=O)(=O)c1ccc(N2CCC(=NOC3CCN(C(=O)OC4CCNC4)CC3)CC2)c(F)c1 (centres unmarked) [Example 64-36]	< 5.00
CCC(C)COC(=O)N1CCC(ON=C2CCN(c3ccc(S(C)(=O)=O)cc3F)CC2)CC1 (centres unmarked) [Example 64-47]	7.37
CS(=O)(=O)c1ccc(N2CCC(=NOC3CCN(C(=O)OCC4CCC4)CC3)CC2)c(F)c1 [Example 64-6]	7.44
CC(N)COC(=O)N1CCC(ON=C2CCN(c3ccc(S(C)(=O)=O)cc3F)CC2)CC1 (centres unmarked) [Example 64-34]	< 5.00

Same assay, conditions: the 34th table, compounds 65-1 to 65-24; read-out: EC50

SMILES	pEC50
CC(C)(C)COC(=O)N1CCC(ON=C2CCN(c3ccc(S(C)(=O)=O)cc3F)CC2)CC1 [Example 65-7]	7.24

Same assay, conditions: the 36th table, compounds 66-1 to 66-51; read-out: EC50

SMILES	pEC50
CS(=O)(=O)c1ccc(N2CCC(=NOC3CCN(Cc4cscn4)CC3)CC2)c(F)c1 [Example 66-11]	< 5.00
Cn1cc(CN2CCC(ON=C3CCN(c4ccc(S(C)(=O)=O)cc4F)CC3)CC2)cn1 [Example 66-10]	< 5.00
Cn1cc(Cl)c(CN2CCC(ON=C3CCN(c4ccc(S(C)(=O)=O)cc4F)CC3)CC2)n1 [Example 66-5]	< 5.00
CC(=O)Nc1ccc(CN2CCC(ON=C3CCN(c4ccc(S(C)(=O)=O)cc4F)CC3)CC2)cc1 [Example 66-39]	< 5.00
CS(=O)(=O)c1ccc(N2CCC(=NOC3CCN(Cc4ccc(F)cc4)CC3)CC2)c(F)c1 [Example 66-33]	6.09
COc1ccc(CN2CCC(ON=C3CCN(c4ccc(S(C)(=O)=O)cc4F)CC3)CC2)c(F)c1 [Example 66-50]	5.99

Same assay, conditions: the 37th table, compounds 66-52 to 66-64; read-out: EC50

SMILES	pEC50
CCc1ccc([C@@H](C)N2CCC(ON=C3CCN(c4cc(F)c(S(C)(=O)=O)cc4F)CC3)CC2)cc1 [Example 66-64]	< 5.00
C/C=C/c1ccc(CN2CCC(ON=C3CCN(c4cc(F)c(S(C)(=O)=O)cc4F)CC3)CC2)c(F)c1 [Example 66-62]	6.87

Same assay, conditions: the 38th table, compounds 66-65 to 66-72; read-out: EC50

SMILES	pEC50
CNC(=O)c1cc(F)c(N2CCC(=NOC3CCN(Cc4ccc(-c5ccccn5)cc4)CC3)CC2)cc1F [Example 66-65]	6.10

Same assay, conditions: the 43rd table, compounds 75-1 to 75-38; read-out: EC50

SMILES	pEC50
CC(C)OC(=O)N1CCC(ON=C2CCN(c3cc(F)c(CC(=O)N4CCCCC4CN4CCOCC4)cc3F)CC2)CC1 (centres unmarked) [Example 75-31]	6.72
CC(C)OC(=O)N1CCC(ON=C2CCN(c3cc(F)c(CC(=O)N4CCC[C@@H](N)C4)cc3F)CC2)CC1 [Example 75-14]	7.29

Same assay, conditions: the 44th table, compounds 77-1 to 77-14; read-out: EC50

SMILES	pEC50
CCc1cnc(N2CCC(ON=C3CCN(c4cc(F)c(CC(=O)N(C)C)cc4F)CC3)CC2)nc1 [Example 77-3]	7.74
CCc1cnc(N2CCC(ON=C3CCN(c4cc(F)c(CC(=O)N5CCC[C@H](N)C5)cc4F)CC3)CC2)nc1 [Example 77-7]	7.35
CCc1cnc(N2CCC(ON=C3CCN(c4cc(F)c(CC(=O)N5CCC(CN(C)C)CC5)cc4F)CC3)CC2)nc1 [Example 77-14]	8.22
